In patent US10640457B2, “Histone acetyltransferase activators and uses thereof” (The Trustees of Columbia University in the City of New York, priority 2009, dated 2020):

What was measured:
[1] = literature [22, 23]; cited from earlier work
[2] = literature [22, 23]; cited from earlier work; remark: listed apart in the source
[3] = Solubility observations; type: physicochemical
[4] = target: T1, Sirtuin 2 (Homo sapiens, UniProt Q8IXJ6); experiment: Sirtuin 2 fluorogenic activity assay
T1 sequence (Q8IXJ6 1-389): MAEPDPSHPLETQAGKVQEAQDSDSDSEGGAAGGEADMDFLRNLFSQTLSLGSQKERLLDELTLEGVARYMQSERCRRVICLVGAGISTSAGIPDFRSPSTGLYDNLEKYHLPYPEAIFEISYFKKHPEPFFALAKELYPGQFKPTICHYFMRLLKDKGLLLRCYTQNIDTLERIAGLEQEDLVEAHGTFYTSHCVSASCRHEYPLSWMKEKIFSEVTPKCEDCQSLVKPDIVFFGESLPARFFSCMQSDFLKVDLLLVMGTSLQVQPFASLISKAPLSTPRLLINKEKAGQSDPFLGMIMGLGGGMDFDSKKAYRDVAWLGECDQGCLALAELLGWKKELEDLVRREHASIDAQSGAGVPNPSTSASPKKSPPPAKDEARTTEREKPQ

[5] = target: T2, Sirtuin 1 (Homo sapiens, UniProt Q96EB6); experiment: Sirtuin 1 fluorogenic activity assay
T2 sequence (Q96EB6 1-747): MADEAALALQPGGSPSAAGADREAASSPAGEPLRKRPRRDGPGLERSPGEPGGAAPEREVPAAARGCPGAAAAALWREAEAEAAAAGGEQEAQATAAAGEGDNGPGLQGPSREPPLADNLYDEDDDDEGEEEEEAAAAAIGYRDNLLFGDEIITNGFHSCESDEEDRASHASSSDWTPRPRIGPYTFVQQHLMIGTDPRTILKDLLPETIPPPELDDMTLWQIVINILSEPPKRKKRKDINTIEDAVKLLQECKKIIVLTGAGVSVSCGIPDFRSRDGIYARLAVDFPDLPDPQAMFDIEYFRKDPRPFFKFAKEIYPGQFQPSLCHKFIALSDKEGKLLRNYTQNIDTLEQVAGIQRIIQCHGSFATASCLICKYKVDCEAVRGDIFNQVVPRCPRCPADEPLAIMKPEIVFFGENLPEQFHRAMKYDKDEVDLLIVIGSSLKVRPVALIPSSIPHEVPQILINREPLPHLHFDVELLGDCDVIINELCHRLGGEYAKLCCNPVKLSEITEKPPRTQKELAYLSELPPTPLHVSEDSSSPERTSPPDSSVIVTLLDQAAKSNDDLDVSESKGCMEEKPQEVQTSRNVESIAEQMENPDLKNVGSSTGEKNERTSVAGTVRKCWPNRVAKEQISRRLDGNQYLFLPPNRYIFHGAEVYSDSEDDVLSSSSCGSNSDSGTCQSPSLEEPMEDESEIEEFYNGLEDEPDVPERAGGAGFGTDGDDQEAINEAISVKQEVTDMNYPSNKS

[6] = literature [P48]; cited from earlier work

Structure (SMILES) | membrane permeability [1] | solubility [2] | other results
CCOc1ccccc1C(=O)Nc1ccc(Cl)c(C(F)(F)F)c1 [6J, N-(4-chloro-3-trifluoromethyl-phenyl)-2-ethoxy-benzamide] | membrane-impermeable | insoluble | solubility in H2O [3]: no solubility
CCCCCCCCCCCCCCCc1cccc(OCC)c1C(=O)Nc1ccc(Cl)c(C(F)(F)F)c1 [CTPB] | membrane-impermeable | insoluble | 
O=C(CCCCCCC(=O)Nc1ccccc1)NO [SAHA, reference compound] |  |  | IC50 [4]: > 10 µM; IC50 [5]: > 10 µM
Cc1cc(-c2ccccc2)nnc1NCCN1CCOCC1 [minaprine] |  |  | brain/blood ratio [6]: > 2
